Assay results taken from US5874442A, “Tricyclic amides useful for inhibition of G-protein function and for treatment of proliferative disease” (Schering-Plough Corporation, priority 1996, dated 1999).
Counter-ions that a name gives are not always drawn. Like-named read-outs stand apart in the source and are kept apart here.

Tests used:
[1] = tested on: DLD-1 (human colon carcinoma cells); experiment: In vivo anti-tumor studies, subcutaneous DLD-1 tumors in athymic nu/nu mice; design: species or system athymic nu/nu female mice; conditions: Mus musculus, DLD-1, po, read-out: Average % Tumor Inhibition
Experimental: Tumor bearing animals are selected and randomized when the tumors are established. Animals are treated with vehicle (β-cyclodextrin for i.p. or corn oil for p.o.) only or with a compound of the present invention in vehicle four times a day (QID) for 7 days per week for 4 weeks. The percent inhibition of tumor growth relative to vehicle controls is determined by tumor measurements.

[2] = tested on: Ras-CVLS processing in COS cells; experiment: Cell-based COS cell assay: inhibition of Ras processing (Ras-CVLS); design: species or system monkey
Source text: Transient expression of val^12 -Ha-Ras-CVLS and […] -Ha-Ras-CVLL in COS monkey kidney cells: Effect of farnesyl protein transferase inhibitors on Ras processing and on disordered cell growth induced by transforming Ras.
COS monkey kidney cells were transfected by electroporation with the plasmid pSV-SPORT (Gibco/BRL) containing a cDNA insert encoding either Ras-CVLS or Ras-CVLL, leading to transient overexpression of a Ras substrate for either farnesyl protein transferase or geranylgeranyl protein transferase I, respectively (see above).
Following electroporation, cells were plated into 6-well tissue culture dishes containing 1.5 ml of Dulbecco's-modified Eagle's media (GIBCO, Inc.) supplemented with 10% fetal calf serum and the appropriate farnesyl protein transferase inhibitors. After 24 hours, media was removed and fresh media containing the appropriate drugs was re-added.
48 hours after electroporation cells were examined under the microscope to monitor disordered cell growth induced by transforming Ras. Cells expressing transforming Ras become more rounded and refractile and overgrow the monolayer, reminiscent of the transformed phenotype. Cells were then photographed, washed twice with 1 ml of cold phosphate-buffered saline (PBS) and removed from the dish by scraping with a rubber policeman into 1 ml of a buffer containing 25 mM Tris, pH 8.0; 1 mM ethylenediamine tetraacetic acid; 1 mM phenylmethylsulfonyl fluoride; […]; and 0.1 mM pepstatin. Cells were lysed by homogenization and cell debris was removed by centrifugation at 2000× g for 10 min.
Cellular protein was precipitated by addition of ice-cold trichloroacetic acid and redissolved in […] of SDS-electrophoresis sample buffer. […] Proteins resolved on the gels were electroblotted onto nitrocellulose membranes for immunodetection.
After washing, membranes were incubated for one hour at room temperature with a 1:5000 dilution of secondary antibody, rabbit anti-rat lgG conjugated to horseradish peroxidase, in PBS containing 1% fetal calf serum. The presence of processed and unprocessed Ras-CVLS or Ras-CVLL was detected using a colorimetric peroxidase reagent (4-chloro-1-naphthol) as described by the manufacturer (Bio-Rad).

[3] = tested on: SW620-BAG human colon carcinoma cells expressing an activated K-ras gene; experiment: Cell mat assay, SW620-BAG tumor cells; format: cell-based
Experimental: (§1) Compound-induced colony inhibition was assayed by addition of serial dilutions of compound directly to the growth medium 24 h after tumor cell planting, and incubating cells for an additional 14 d to allow colony formation. Assays were terminated by rinsing monolayers twice with phosphate-buffered saline (PBS), fixing the monolayers with a 1% glutaraldehyde solution in PBS, then visualizing tumor cells by staining with X-Gal (Price, J., et al., Lineage analysis in the vertebrate nervous system by retrovirus-mediated gene transfer, Proc. Natl. Acad. Sci.84, 156-160(1987)). […] Both IC50 values were obtained by determining the density of tumor cells and mat cells by visual inspection and enumeration of cells per colony and the number of colonies under the microscope.
(§2) Additional assays were carried out by following essentially the same procedure as described above, but with substitution of alternative indicator tumor cell lines in place of the T24-BAG cells. The assays were conducted using either DLD-1-BAG human colon carcinoma cells expressing as activated K-ras gene or SW620-BAG human colon carcinoma cells expressing an activated K-ras gene.

[4] = target: T1, farnesyl protein transferase (FPT) (Rattus norvegicus, UniProt Q02293+Q04631); experiment: In vitro enzyme assay: inhibition of farnesyl protein transferase (FPT), [3H]farnesyl transfer to Ras-CVLS; format: biochemical
T1 construct: were partially purified from rat brain by ammonium sulfate fractionation; from tissue; host or cells: rat brain (ammonium sulfate fractionation, Q-Sepharose)
Experimental: 1. In vitro enzyme assays:
Inhibition of farnesyl protein transferase and geranylgeranyl protein transferase.
Human farnesyl protein transferase was also expressed in E. coli, using cDNA clones encoding both the a and b subunits. […] Human farnesyl protein transferase was partially-purified from the soluble protein fraction of E. coli as described above. […] Two forms of val^12 -Ha-Ras protein were prepared as substrates for these enzymes, differing in their carboxy terminal sequence. One form terminated in cysteine-valine-leucine-serine (Ras-CVLS) the other in cystein-valine-leucine-leucine (Ras-CVLL). Ras-CVLS is a substrate for the farnesyl protein transferase while Ras-CVLL is a substrate for geranylgeranyl protein transferase I. The cDNAs encoding these proteins were constructed so that the proteins contain an amino-terminal extension of 6 histidine residues. Both proteins were expressed in Escherichia coli and purified using metal chelate affinity chromatography. The radiolabelled isoprenyl pyrophosphate substrates, [^3 H]farnesyl pyrophosphate and [^3 H] geranylgeranyl pyrophosphate, were purchased from DuPont/New England Nuclear.
The reaction was allowed to proceed for 30 minutes at room temperature and then stopped with 0.5 ml of 4% sodium dodecyl sulfate (SDS) followed by 0.5 ml of cold 30% TCA. Samples were allowed to sit on ice for 45 minutes and precipitated Ras protein was then collected on GF/C filter paper mats using a Brandel cell harvester. […] Percent inhibition was calculated relative to the DMSO vehicle control.

[5] = tested on: T24-BAG4 human bladder carcinoma cells expressing an activated H-ras gene; experiment: Cell mat assay, T24-BAG4 tumor cells; format: cell-based; conditions: read-out: Tumor (T-24) IC50
Experimental: as §1

[6] = tested on: Normal human HEPM fibroblasts; experiment: Cell mat assay, normal cells (cell mat); format: cell-based; conditions: read-out: Normal IC50
Experimental: as §1

[7] = tested on: DLD-1-BAG human colon carcinoma cells; experiment: Cell mat assay, DLD-1-BAG tumor cells; format: cell-based; conditions: read-out: Tumor (DLD-1) IC50
Experimental: as §1, §2

[8] = […], Experiment No. 1, 50 mg/kg p.o., QID, 7 days per week for 4 weeks
[9] = […], Experiment No. 2, 10 mg/kg p.o., QID, 7 days per week for 4 weeks
[10] = Primates, COS, read-out: Inhibition of Ras Processing IC50, Table 3, COS cells
[11] = Homo sapiens, SW-620, 336 h, Mat assay, 14 d, read-out: Tumor (SW620) IC50
[12] = Homo sapiens, 336 h, Mat assay, 14 d
[13] = Table 3, COS cells, read-out: Inhibition of Ras Processing IC50
[14] = […], Experiment No. 3, 50 mg/kg p.o., QID, 7 days per week for 4 weeks
[15] = […], Experiment No. 4, 10 mg/kg p.o., QID, 7 days per week for 4 weeks

Molecule `O=C(Cc1cc[n+]([O-])cc1)N1CCN([C@@H]2c3ncc(Br)cc3CCc3cc(Cl)cc(Br)c32)CC1` [Example 11B] has an inhibition in vivo at 10 mg/kg ([1]; […]) of 17% and an inhibition in vivo at 50 mg/kg ([1]; […]) of 38.8%.
Work on `NC(=O)N1CCC(CC(=O)N2CCN([C@H]3c4ccc(Cl)c(Br)c4CCc4cc(Br)cnc43)CC2)CC1` [Example 6] yielded an inhibition in vivo at 50 mg/kg [1, 8] of 61.2% and an inhibition in vivo at 10 mg/kg [1, 9] of 35.4%.
In the case of `O=C(Cc1cc[n+]([O-])cc1)N1CCC(=C2c3ncc(Br)cc3CCc3cc(Cl)cc(Br)c32)CC1` (racemic) [Example 7], the inhibition in vivo at 50 mg/kg [1, 8] is reported as 76.5% and the inhibition in vivo at 10 mg/kg [1, 9] is reported as 35.1%.
Molecule `O=C(Cc1cc[n+]([O-])cc1)N1CCN(C2c3ncc(Br)cc3CCc3cc(Cl)cc(Br)c32)CC1` (stereo not shown) [Example 11] has an IC50 [2, 10] of under 250 nM.
With `NC(=O)N1CCC(CC(=O)N2CCC(C3c4ccc(Cl)c(Br)c4CCc4cc(Br)cnc43)CC2)CC1` (single isomer, unassigned) [Example 13] the inhibition in vivo at 50 mg/kg [1, 8] was 61%, the inhibition in vivo at 10 mg/kg [1, 9] was 7% and the IC50 [3, 11] was over 1600 nM.
Molecule `O=C(Cc1cc[n+]([O-])cc1)N1CCC(C2c3ccc(Cl)c(Br)c3CCc3cc(Br)cnc32)CC1` (single isomer, unassigned) [Example 14A · HCl salt] has an IC50 ([4]; Table 1, Ras-CVLS substrate, 30 minutes at room temperature, read-out: FPT IC50) of under 3.1 nM.
Work on `O=C(Cc1cc[n+]([O-])cc1)N1CCC(=C2c3ncc(Br)cc3CCc3cc(Cl)cc(Br)c32)CC1` [Example 7B] yielded an IC50 [5, 12] of under 1600 nM and an IC50 ([6]; Mat assay, 14 d, normal cells) of over 25000 nM.
`NC(=O)N1CCC(CC(=O)N2CCC(C3c4ccc(Cl)c(Br)c4CCc4cc(Br)cnc43)CC2)CC1` (stereo not shown) [Example 13B] showed an IC50 [3, 11] of over 3100 nM.
`O=C(Cc1cc[n+]([O-])cc1)N1CCN([C@H]2c3ncc(Br)cc3CCc3cc(Cl)cc(Br)c32)CC1` [Example 11A] was tested, and the inhibition in vivo at 10 mg/kg ([1]; […]) was 44.8% and the inhibition in vivo at 50 mg/kg ([1]; […]) was 63.8%.
Work on `O=C(Cc1cc[n+]([O-])cc1)N1CCN([C@H]2c3ccc(Cl)cc3CCc3cc(Br)cnc32)CC1` [Example 16B] yielded an inhibition in vivo at 10 mg/kg ([1]; […]) of 50% and an inhibition in vivo at 50 mg/kg ([1]; […]) of 77%.
`NC(=O)N1CCC(CC(=O)N2CCN(C3c4ncc(Br)cc4CCc4cc(Cl)cc(Br)c43)CC2)CC1` (single isomer, unassigned) [Example 12B] was tested, and the inhibition in vivo at 50 mg/kg [1, 8] was 83% and the inhibition in vivo at 10 mg/kg [1, 9] was 37.7%.
For `O=C(Cc1cc[n+]([O-])cc1)N1CCC(=C2c3ncc(Br)cc3CCc3cc(Cl)cc(Br)c32)CC1` [Example 7A], the IC50 [2, 13] was over 1000 nM and the inhibition in vivo at 10 mg/kg ([1]; Experiment No. 2, 10 mg/kg p.o., QID, 7 days per week for 4 weeks) was 33.7%.
With `NC(=O)N1CCC(CC(=O)N2CCN([C@@H]3c4ccc(Cl)cc4CCc4cc(Br)cnc43)CC2)CC1` [Example 17] the IC50 [3, 11] was 25000 nM.
`NC(=O)N1CCC(CC(=O)N2CCC(C3c4ccc(Cl)cc4C=Cc4cc(Br)cnc43)CC2)CC1` (stereo not shown) [Example 1] gave an inhibition in vivo at 50 mg/kg [1, 8] of 38.2%, an inhibition in vivo at 10 mg/kg [1, 9] of 17.2% and an inhibition in vivo at 50 mg/kg [1, 14] of 35.4%. It also gave an inhibition in vivo at 10 mg/kg [1, 15] of 34%.
`O=C(Cc1cc[n+]([O-])cc1)N1CCN([C@H]2c3ccc(Cl)c(Br)c3CCc3cc(Br)cnc32)CC1` [Example 5] showed an inhibition in vivo at 10 mg/kg ([1]; […]) of 24% and an inhibition in vivo at 50 mg/kg ([1]; […]) of 38%.
In the case of `O=C(Cc1cc[n+]([O-])cc1)N1CCN([C@@H]2c3ccc(Cl)c(Br)c3CCc3cc(Br)cnc32)CC1` [Example 5A], the IC50 [4] is reported as over 99 nM, the IC50 ([5]; Homo sapiens, 336 h) is reported as 12500 nM and the IC50 ([6]; Homo sapiens, Fibroblast, 336 h) is reported as over 25000 nM. The IC50 ([7]; Homo sapiens, DLD-1, 336 h) was 12500 nM and the IC50 ([3]; Homo sapiens, SW-620, 336 h, read-out: Tumor (SW620) IC50, Mat assay, 14 d) was over 25000 nM.
Work on `O=C(Cc1cc[n+]([O-])cc1)N1CCC(C2c3ccc(Cl)c(Br)c3CCc3cc(Br)cnc32)CC1` (single isomer, unassigned) [Example 14A] yielded an inhibition in vivo at 50 mg/kg [1, 8] of 59% and an inhibition in vivo at 10 mg/kg [1, 9] of 48%.
For `NC(=O)N1CCC(CC(=O)N2CCC(C3c4ccc(Cl)cc4CCc4cc(Br)cnc43)CC2)CC1` (stereo not shown) [Example 4], the inhibition in vivo at 50 mg/kg [1, 8] was 41%, the inhibition in vivo at 10 mg/kg [1, 9] was 18% and the inhibition in vivo at 50 mg/kg [1, 14] was 41%. For the same molecule, the inhibition in vivo at 10 mg/kg [1, 15] was 14%.
`NC(=O)N1CCC(CC(=O)N2CCC(=C3c4ncc(Br)cc4CCc4cc(Cl)cc(Br)c43)CC2)CC1` [Example 8A] was tested, and the IC50 [2, 13] was over 1000 nM, the IC50 [5, 12] was under 1600 nM and the IC50 ([6]; Homo sapiens, Fibroblast, 336 h, Mat assay, 14 d, normal cells) was over 25000 nM. For the same molecule, the IC50 ([7]; Homo sapiens, DLD-1, 336 h, Mat assay, 14 d) was under 1600 nM and the IC50 [3, 11] was 3100 nM.
For `O=C(Cc1cc[n+]([O-])cc1)N1CCC([C@H]2c3ncc(Br)cc3CCc3cc(Cl)cc(Br)c32)CC1` [Example 9], the inhibition in vivo at 50 mg/kg [1, 8] was 68% and the inhibition in vivo at 10 mg/kg [1, 9] was 19%.
`O=C(Cc1cc[n+]([O-])cc1)N1CCN([C@H]2c3ccc(Cl)c(Br)c3CCc3cc(Br)cnc32)CC1` [Example 5 · HCl salt] gave an IC50 [2, 10] of 10 nM.
Work on `O=C(Cc1cc[n+]([O-])cc1)N1CCC([C@@H]2c3ncc(Br)cc3CCc3cc(Cl)cc(Br)c32)CC1` [Example 9A] yielded an IC50 ([2]; Primates, COS, Table 3, COS cells, read-out: Inhibition of Ras Processing IC50) of 850 nM, an IC50 [4] of over 88 nM and an IC50 [5, 12] of under 1600 nM.
With `NC(=O)N1CCC(CC(=O)N2CCC(=C3c4ncc(Br)cc4CCc4cc(Cl)cc(Br)c43)CC2)CC1` [Example 8B] the IC50 [2, 13] was 280 nM, the inhibition in vivo at 50 mg/kg [1, 8] was 62.5% and the inhibition in vivo at 10 mg/kg [1, 9] was 29.2%. For the same molecule, the IC50 ([5]; Mat assay, 14 d) was under 1600 nM, the IC50 ([6]; Mat assay, 14 d, normal cells) was over 25000 nM and the IC50 ([7]; Mat assay, 14 d) was under 1600 nM. The IC50 ([3]; Mat assay, 14 d, read-out: Tumor (SW620) IC50) was 3100 nM.
